Legend:
Class I HDAC = assay: Western blot for acetylated histone H3 as a measure of Class I HDAC inhibition; type: cell-based; conditions: Jurkat cells and primary resting CD4+ T-cells, 8 hours
Class II HDAC = assay: Western blot for acetylated tubulin as a measure of Class II HDAC inhibition; type: cell-based; conditions: Jurkat cells and primary resting CD4+ T-cells, 8 hours
JLAT10.6 cells = assay: HIV-1 latency reactivation screen in JLAT10.6 cells (GFP by FACS); type: cell-based
Experimental: For screening purposes, JLAT10.6 cells, a T-cell line that has been widely used for HIV-1 reactivation studies (32-34) were utilized. In this cell line, HIV-1Δenv from the NL4-3 backbone with GFP replacing the Nef gene is stably integrated into the genome and is expressed at undetectable levels. Upon HIV reactivation with latency reversing agents (LRAs), viral production leads to expression of GFP that was measured by fluorescent activation cell sorting (FACS) analysis using a Becton Dickinson FACS machine. Analysis was performed using BD […] PRO software (BD Biosciences; Franklin Lakes, N.J.). The stronger the HIV reactivation, the higher the percentage of GFP-positive cells observed. JLAT10.6 cells were incubated with HDAC inhibitors at concentrations of 1 and 10 μM for 24 hours, using TNF-α and SAHA (Vorinostat) as positive controls.

HIV Gag = assay: Western blot for HIV Gag in JLAT10.6 cells; type: cell-based; conditions: 24 h
HIV-1 LTR = assay: ChIP assay of acetylated histone H3 at the HIV-1 LTR; type: cell-based; conditions: JLAT10.6 cells, 6 hours, HIV-1 LTR qPCR
Experimental: Since histone H3 is […] by Class I HDACs and known to bind to the HIV LTR promoter, we determined H3 acetylation status of the HIV-1 LTR in JLAT10.6 cells. […] The ChIP assay was performed using a ChIP kit (ab500) (Abcam; Cambridge, Mass.). Briefly, an anti-rabbit IgG (Cell Signaling Technologies; Danvers, Mass.) was used as an isotype control. Actin was used as an internal control. Total chromatin (input) and the immunoprecipitated chromatin were used as templates and HIV-1 LTR was amplified by quantitative PCR using HIV-1 LTR (forward: 5-[…] […]-3, reverse: 5-TAG […] A-3) and actin primers. Using ChIP, we recovered 15% of the DNA from SDL148-treated cells using anti-acetylated histone H3 antibody compared to less than 5% recovery with DMSO-treated cells, and less than 1% from the IgG-negative controls. […] An alternative mechanism is modulation of lysines in Tat that impact its ability to interact with TAR of the HIV-1 LTR (37-39).

HDAC3 = HDAC3 (Homo sapiens, UniProt O15379); conditions: cited from earlier work
Chain of HDAC3 (O15379 whole entry): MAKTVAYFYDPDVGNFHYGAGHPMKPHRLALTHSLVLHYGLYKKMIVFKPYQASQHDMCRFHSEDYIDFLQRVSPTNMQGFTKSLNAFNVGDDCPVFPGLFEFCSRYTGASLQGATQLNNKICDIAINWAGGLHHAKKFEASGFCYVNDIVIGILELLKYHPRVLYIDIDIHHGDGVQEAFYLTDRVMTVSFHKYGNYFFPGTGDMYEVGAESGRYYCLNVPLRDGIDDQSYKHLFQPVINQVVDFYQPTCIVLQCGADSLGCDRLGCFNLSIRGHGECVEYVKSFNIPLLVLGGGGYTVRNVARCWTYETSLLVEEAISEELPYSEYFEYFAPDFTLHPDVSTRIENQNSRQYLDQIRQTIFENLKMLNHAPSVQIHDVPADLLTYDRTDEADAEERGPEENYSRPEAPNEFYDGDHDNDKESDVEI
Chain of HDAC3 (Q9Y618 395-489 partner limits assumed): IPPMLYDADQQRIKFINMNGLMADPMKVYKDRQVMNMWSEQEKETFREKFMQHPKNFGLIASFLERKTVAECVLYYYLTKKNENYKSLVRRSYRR

[1] = mice; cited from earlier work

Compound | histone H3 acetylation (Class I HDAC) | acetylation of tubulin (Class II HDAC) | reactivation of HIV expression at 100 nM (JLAT10.6 cells; 100 nM) | potency in reactivating HIV from latency compared with vorinostat (JLAT10.6 cells; 1 and 10 μM, 24 hours) | EC50 (JLAT10.6 cells; read-out: EC50 to reactivate HIV from latency) | expression of HIV Gag (HIV Gag) | DNA recovered using anti-acetylated histone H3 antibody (HIV-1 LTR) | potency against HDAC3 (HDAC3) | bioavailability [1]
O=C(CCCCCCC(=O)Nc1ccccc1)NO [SAHA, suberoylanilide hydroxamic acid] | enhanced the acetylation of both histone H3 and tubulin | enhanced the acetylation of both histone H3 and tubulin | – | – | – | – | – | – | –
largazole [SDL148] | – | – | the only compound able to reactivate HIV expression significantly | comparable or more potent than vorinostat | 150 nM | enhanced expression of HIV Gag | 15% | picomolar range | excellent bioavailability

From patent publication US20190290621A1, “COMPOSITIONS AND METHODS FOR TREATING HIV-1 LATENCY” (priority 2017, published 2019)
